Where a name gives a salt, the structure may show the parent alone.
Assays:
[1] = test system: SARS-CoV-2 S protein-mediated cell–cell fusion; assay type: cell-based, human
[2] = test system: reconstituted CC-split luciferase in HEK293T cells; experiment: CC-split luciferase displacement by externally added synthetic displacer peptide; assay type: cell-based, human; details: for Displacement of cognate peptide from the N8:N7 split luciferase by added synthetic peptide: nLuc:N8 and cLuc:N7, peptide 0–50 µM in DOTAP for 2 h (Fig. S6B)
[3] = CD thermal denaturation scans (midpoint Tm); assay type: physicochemical; details: CC of the peptide with N8 compared with N8:N7
Protocol: CD measurements were performed with a ChiraScan instrument (Applied Photophysics, UK) equipped with a Peltier thermal control block (Melcor, NJ, Laird Technologies). The final concentrations of individual peptides were […] in Tris buffer (50 mM Tris–HCl, pH 7.5, 150 mM NaCl, and 1 mM TCEP). The mixture also contained a 20 μM concentration of each peptide. All experiments were performed in a quartz cuvette (Hellma, Germany) with a path length of 1 mm. CD spectra were measured every 1 nm from 200 to 280 nm with a bandwidth of 1 nm and 0.5 s integration time. The results are the average of three scans. Temperature denaturation scans were performed by measuring the CD signal at 222 nm from 0 to 95 °C in 1 °C increments at a rate of 1 °C/min. The actual sample temperatures were measured directly in the cuvette using a temperature probe. The CD spectrum was measured at 95 °C and at 20 °C after rapid cooling.

[4] = test system: CC-split transcription factor (TALE-A:CC with CC:VP16) in HEK293T cells; experiment: CC-split transcription factor reconstitution and displacement (TALE10x-Pmin-fLuc reporter); assay type: cell-based, human; details: TALE-A:N8 with CC:VP16, displacer plasmid 0-50 or 0–70 ng, 48 h after transfection
[5] = test system: reconstituted CC-split luciferase in HEK293T cells; experiment: CC-split luciferase attenuation by co-expressed displacer peptide; assay type: cell-based, human
[6] = SEC-MALS multimerization state; assay type: physicochemical; details: peptides 200 µM in 50 mM Tris–HCl pH 7.5, 150 mM NaCl, 10% glycerol
Protocol: A Waters e2695 HPLC system coupled with a 2489 UV detector (Waters, MA) and a Dawn 8 + multiple-angle light scattering detector (Wyatt, CA) was used for SEC-MALS experiments. Peptides (200 μM in 50 mM Tris–HCl with a pH of 7.5, 150 mM NaCl, and 10% glycerol) were filtered using Durapore 0.1 μm centrifuge filters (Merck Millipore, Ireland) before being injected onto the Biosep SEC-S2000 column (Phenomenex, CA), with the exception of the peptide N2, which was injected in a Superdex 30 increase column (GE, IL). The mobile phases used for the separations were 50 mM Tris–HCl, pH 7.5, 150 mM NaCl and 50 mM Tris–HCl, pH 7.5, 500 mM NaCl for the Biosep SEC-S2000 column and the Superdex 30 increase column, respectively. The injection volume was 50 μl, and the flow rate was 0.5 ml/min. Data analysis was carried out with Astra 7.0 software (Wyatt, CA) utilizing the theoretical extinction coefficient calculated by ProtParam.

[7] = target: T1, N6 (synthetic construct, N-terminal acetylation; C-terminal amidation); experiment: ITC
T1 chain: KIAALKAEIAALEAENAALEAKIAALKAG

[8] = target: the molecule itself; experiment: SEC-MALS; peptides 200 µM, alone or as equimolar mixture; Biosep SEC-S2000 column; 50 mM Tris-HCl pH 7.5, 150 mM NaCl
[9] = target: T2, P6A (synthetic construct, N-terminal acetylation; C-terminal amidation); experiment: ITC
T2 chain: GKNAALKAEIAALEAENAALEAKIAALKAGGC

[10] = target: T3, P6A (N-terminal acetylation; C-terminal amidation); experiment: CD thermal denaturation; 20 µM each peptide; CD signal at 222 nm, 0 to 95 °C; 50 mM Tris-HCl pH 7.5, 150 mM NaCl, 1 mM TCEP; midpoint Tm from a thermodynamic model fit; details: both partners purified
T3 chain: T2 chain

[11] = target: T4, N8 (synthetic construct, N-terminal acetylation; C-terminal amidation); experiment: ITC
T4 chain: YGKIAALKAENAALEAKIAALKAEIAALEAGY

[12] = target: T5, P8A (synthetic construct, N-terminal acetylation; C-terminal amidation); experiment: ITC
T5 chain: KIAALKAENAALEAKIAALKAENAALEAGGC

[13] = target: T6, P8A (N-terminal acetylation; C-terminal amidation); experiment: CD thermal denaturation; 20 µM each peptide; CD signal at 222 nm, 0 to 95 °C; 50 mM Tris-HCl pH 7.5, 150 mM NaCl, 1 mM TCEP; midpoint Tm from a thermodynamic model fit; details: both partners purified
T6 chain: T5 chain

For `CN(C)C(=O)COC(=O)Cc1ccc(OC(=O)c2ccc(NC(=N)N)cc2)cc1` [Camostat, camostat mesylate], the “Syncytia formation, luciferase activity of mixture of donor and acceptor cells” value [1] was “reduced the amount of formed syncytia”.

In the case of “EIQQLEE KNSQLKQ EISQLEE KNQELKY G [P7SN, reference compound]”, the “Displacement of cognate peptide from the N8:N7 split luciferase by added synthetic peptide” value (“Displacement of cognate peptide” below) ([2]; HEK293T) is reported as “failed to displace the cognate peptide from the N8:N7 split luciferase as efficiently” and the “midpoint Tm of N-P-CCs lower than N-CCs” value [3] is reported as “more than 10 °C”.

With “SPED EIQALEE KNAQLKQ EIAALEE KNQALKY G [P7, reference compound]” the “Displacement of cognate peptide” value ([2]; HEK293T) was “failed to displace the cognate peptide from the N8:N7 split luciferase as efficiently”, the “midpoint Tm of N-P-CCs lower than N-CCs” value [3] was “more than 10 °C” and the “Attenuation of CC-split transcription activator assembly by co-expressed NLS-tagged CC-displacer peptide” value (“Attenuation” for short) [4] was “failed to prevent the reconstitution of a functional transcription as efficiently”.

With “Y EIAALEA KIAALKA KNAALKA EIAALEA GC [N5]” the “N6:P5 split luciferase activity with co-expressed displacer peptide” value [5] was “attenuated N6:P5 split luciferase activity” and the “Displacement of cLuc:P5 from the N6:P5 split luciferase by added synthetic peptide” value ([2]; HEK293T, nLuc:N6 and cLuc:P5, […]) was “effectively displaced cLuc:P5”.

With “Y EIAALEA KNAALKA EIAALEA KIAALKA GC [N7]” the “Competition of co-expressed displacer peptide with N8:N7 CC split luciferase” value ([5]; HEK293T, plasmid expressing displacer 0, 80, 155 ng, 48 h after transfection) was “failed to effectively compete”, the “Luciferase activity of CC-split luciferase after addition of synthetic CC-displacer peptide” value ([2]; […], peptide in DOTAP for 2 h, 48 h after transfection) was “debilitated CC-split luciferase assembly most efficiently” and the “Attenuation” value [4] was “weakened the transcription activator assembly most efficiently”.

With “YG EIAALEA KNAALKA EIAALEA KNAALKA GC [P7A]” the “Displacement of cognate peptide” value ([2]; HEK293T) was “failed to displace the cognate peptide from the N8:N7 split luciferase as efficiently”, the “Multimerization state in solution” value [6] was “monomers” and the “midpoint Tm of N-P-CCs lower than N-CCs” value [3] was “more than 10 °C”. For the same molecule, the “Attenuation” value [4] was “failed to prevent the reconstitution of a functional transcription as efficiently”.

In the case of “YG ENAALEA KIAALKA KNAALKA EIAALEA GC [P5A]”, the “Multimerization state in solution” value [6] is reported as “monomers”.

With “YG KIAALKA ENAALEA KIAALKA ENAALEA GGC [P8A]” the “Multimerization state in solution” value [6] was “monomers”.

For “YG KNAALKA EIAALEA ENAALEA KIAALKA GGC [P6A]”, the “Multimerization state in solution” value [6] was “monomers”.

In the case of Ac-GEIAALEAKIAALKAKNAALKAEIAALEAGY-NH2 [N5], the Kd [7] is reported as 1 nM and the “stoichiometry N” value [8] is reported as 2.

In the case of Ac-KIAALKAEIAALEAENAALEAKIAALKAG-NH2 [N6], the “stoichiometry N” value [8] is reported as 2.

For Ac-ENAALEAKIAALKAKNAALKAEIAALEA-NH2 [P5A], the Kd [9] was 4 nM and the Tm [10] was 57 °C.

In the case of Ac-GEIAALEAKNAALKAEIAALEAKIAALKAGY-NH2 [N7], the Kd [11] is reported as 10 nM and the “stoichiometry N” value [8] is reported as 2.

With Ac-YGKIAALKAENAALEAKIAALKAEIAALEAGY-NH2 [N8] the “stoichiometry N” value [8] was 2.

With Ac-GEIAALEAKNAALKAEIAALEAKNAALKAGC-NH2 [P7A] the Kd [12] was 19 nM and the Tm [13] was 64 °C.
